{"source": "ChEMBL document CHEMBL4825672", "about": "“Marine Bile Natural Products as Agonists of the TGR5 Receptor” (J Nat Prod, 2021)", "key": {"HEK293 [1]": {"test_system": "HEK293", "experiment": "Induction of intracellular calcium level in human HEK293 cells at 0.1 mM in presence of Galphaq inhibitor, UBO-QIC and in absence of extracellular calcium by Fura-2AM dye based fluorometric analysis", "format": "functional, cell-based"}, "[2]": {"target": "T1, G-protein coupled bile acid receptor 1 (Homo sapiens) (UniProt Q8TDU6)", "T1 sequence (whole entry)": "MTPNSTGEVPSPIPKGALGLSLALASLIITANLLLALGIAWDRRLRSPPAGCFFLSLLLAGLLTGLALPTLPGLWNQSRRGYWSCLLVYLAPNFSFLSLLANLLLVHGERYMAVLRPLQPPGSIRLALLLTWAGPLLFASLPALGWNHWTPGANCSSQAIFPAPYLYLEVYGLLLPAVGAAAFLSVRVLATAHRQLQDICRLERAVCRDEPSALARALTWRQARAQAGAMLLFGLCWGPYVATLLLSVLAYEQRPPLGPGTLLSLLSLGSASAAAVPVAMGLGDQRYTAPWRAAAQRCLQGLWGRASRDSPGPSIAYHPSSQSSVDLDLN", "experiment": "Agonist activity at TGR5 (unknown origin) transfected in HEK293 cells assessed as increase in intracellular calcium level at 0.33 mM in presence of Galphaq inhibitor, UBO-QIC and in absence of extracellular calcium by Fura-2AM dye based fluorometric analysis", "format": "functional, cell-based"}, "HEK293 [3]": {"test_system": "HEK293", "experiment": "Induction of intracellular calcium level in human HEK293 cells at 0.33 mM in presence of Galphaq inhibitor, UBO-QIC and in absence of extracellular calcium by Fura-2AM dye based fluorometric analysis", "format": "functional, cell-based"}, "HEK293 [4]": {"test_system": "HEK293", "experiment": "Cytotoxicity against human HEK293 cells transfected with TGR5 assessed as reduction in cell viability at 0.67 mM measured after 2.5 hrs by MTS assay", "format": "cell-based", "settings": "hek293, 2.5 h, 670 µM"}, "HEK293 [5]": {"test_system": "HEK293", "experiment": "Induction of intracellular calcium level in human HEK293 cells at 0.1 to 0.33 mM in absence of extracellular calcium by Fura-2AM dye based fluorometric analysis", "format": "functional, cell-based", "settings": "dose 0.1-0.33 mM"}, "[6]": {"target": "T1, G-protein coupled bile acid receptor 1 (Homo sapiens)", "experiment": "Agonist activity at TGR5 (unknown origin) transfected in HEK293 cells assessed as increase in intracellular calcium level at 0.1 mM in presence of Galphaq inhibitor, UBO-QIC and in absence of extracellular calcium by Fura-2AM dye based fluorometric analysis", "format": "functional, cell-based", "settings": "filed as agonist"}, "HEK293 [7]": {"test_system": "HEK293", "experiment": "Cytotoxicity against human HEK293 cells transfected with TGR5 assessed as reduction in cell viability at 0.33 to 0.5 mM measured after 2.5 hrs by MTS assay", "format": "cell-based", "settings": "hek293, 2.5 h, 500 µM, dose 0.33-0.5 mM"}, "[8]": {"target": "T1, G-protein coupled bile acid receptor 1 (Homo sapiens)", "experiment": "Agonist activity at TGR5 (unknown origin) transfected in HEK293 cells assessed as increase in intracellular calcium level at 0.1 to 0.33 mM in absence of extracellular calcium by Fura-2AM dye based fluorometric analysis", "format": "functional, cell-based", "settings": "filed as agonist, dose 0.1-0.33 mM"}, "HEK293 [9]": {"test_system": "HEK293", "experiment": "Induction of intracellular calcium level in human HEK293 cells at 1 mM in absence of extracellular calcium by Fura-2AM dye based fluorometric analysis", "format": "functional, cell-based"}, "HEK293 [10]": {"test_system": "HEK293", "experiment": "Cytotoxicity against human HEK293 cells transfected with TGR5 assessed as reduction in cell viability at 1 mM measured after 2.5 hrs by MTS assay", "format": "cell-based", "settings": "hek293, 2.5 h, 1000 µM"}, "[11]": {"target": "T1, G-protein coupled bile acid receptor 1 (Homo sapiens)", "experiment": "Agonist activity at TGR5 (unknown origin) transfected in HEK293 cells assessed as increase in intracellular calcium level at 1 mM in presence of Galphaq inhibitor, UBO-QIC and in absence of extracellular calcium by Fura-2AM dye based fluorometric analysis", "format": "functional, cell-based"}, "[12]": {"target": "T1, G-protein coupled bile acid receptor 1 (Homo sapiens)", "experiment": "Agonist activity at TGR5 (unknown origin) transfected in HEK293 cells assessed as increase in intracellular calcium level at 0.5 to 0.67 mM in presence of Galphaq inhibitor, UBO-QIC and in absence of extracellular calcium by Fura-2AM dye based fluorometric analysis", "format": "functional, cell-based", "settings": "dose 0.5-0.67 mM"}, "[13]": {"target": "T1, G-protein coupled bile acid receptor 1 (Homo sapiens)", "experiment": "Agonist activity at TGR5 (unknown origin) transfected in HEK293 cells assessed as increase in intracellular calcium level in absence of extracellular calcium by Fura-2AM dye based fluorometric analysis", "format": "functional, cell-based", "settings": "filed as agonist, dose 0.5-0.67 mM"}, "HEK293 [14]": {"test_system": "HEK293", "experiment": "Induction of intracellular calcium level in human HEK293 cells at 0.5 to 0.67 mM in absence of extracellular calcium by Fura-2AM dye based fluorometric analysis", "format": "functional, cell-based", "settings": "dose 0.5-0.67 mM"}}, "note": "Activity calls are given as the source filed them. The rule behind the calls is not given here.", "data": [{"smiles": "C[C@H](CCC(=O)O)[C@H]1CC[C@H]2[C@@H]3CC[C@@H]4C[C@H](O)CC[C@]4(C)[C@H]3C[C@H](O)[C@]12C", "note": "[DEOXYCHOLIC ACID]", "values": [{"measurement": "Activity", "setting": "HEK293 [1]", "result": "Active"}, {"measurement": "Activity", "setting": "[2]", "result": "inactive"}, {"measurement": "Activity", "setting": "HEK293 [3]", "result": "inactive"}, {"measurement": "Activity", "setting": "HEK293 [4]", "result": "Toxic"}, {"measurement": "Activity", "setting": "HEK293 [5]", "result": "Dose-Dependent Effect"}, {"measurement": "Activity", "setting": "[6]", "result": "Active"}, {"measurement": "Activity", "setting": "HEK293 [7]", "result": "Toxic"}, {"measurement": "Activity", "setting": "[8]", "result": "Dose-Dependent Effect"}]}, {"smiles": "C[C@H](CC[C@H](O)C(CO)COS(=O)(=O)O)[C@H]1CC[C@H]2[C@@H]3[C@H](O)C[C@@H]4C[C@H](O)CC[C@]4(C)[C@H]3C[C@H](O)[C@]12C", "note": "(some centres not stated)", "values": [{"measurement": "Activity", "setting": "HEK293 [9]", "result": "inactive"}, {"measurement": "Activity", "setting": "HEK293 [10]", "result": "Non-Toxic"}, {"measurement": "Activity", "setting": "[11]", "result": "inactive"}]}, {"smiles": "C[C@H](CC[C@H](O)C(CO)CO)[C@H]1CC[C@H]2[C@@H]3[C@H](O)C[C@@H]4C[C@H](O)CC[C@]4(C)[C@H]3C[C@H](O)[C@]12C", "values": [{"measurement": "Activity", "setting": "[12]", "result": "inactive"}, {"measurement": "Activity", "setting": "HEK293 [10]", "result": "Toxic"}, {"measurement": "Activity", "setting": "[13]", "result": "Dose-Dependent Effect"}, {"measurement": "Activity", "setting": "HEK293 [14]", "result": "inactive"}]}, {"smiles": "C[C@H](CCC(=O)O)[C@H]1CC[C@H]2[C@@H]3[C@@H](O)C[C@@H]4C[C@H](O)CC[C@]4(C)[C@H]3CC[C@]12C", "note": "[URSODIOL]", "values": [{"measurement": "Activity", "setting": "HEK293 [9]", "result": "inactive"}, {"measurement": "Activity", "setting": "HEK293 [10]", "result": "Non-Toxic"}]}]}
